The values that follow come from ChEMBL document CHEMBL1127261, “3-Substituted 6-butyl-1,2-dihydropyridin-2-ones: A new series of potent nonpeptide angiotensin II receptor antagonists” (Bioorg Med Chem Lett, 1994).

For assay [1], the target named is T1, Angiotensin II receptor (AT-1) type-1 (Rattus norvegicus, UniProt P29089+P25095).
T1 sequence (P29089 whole entry): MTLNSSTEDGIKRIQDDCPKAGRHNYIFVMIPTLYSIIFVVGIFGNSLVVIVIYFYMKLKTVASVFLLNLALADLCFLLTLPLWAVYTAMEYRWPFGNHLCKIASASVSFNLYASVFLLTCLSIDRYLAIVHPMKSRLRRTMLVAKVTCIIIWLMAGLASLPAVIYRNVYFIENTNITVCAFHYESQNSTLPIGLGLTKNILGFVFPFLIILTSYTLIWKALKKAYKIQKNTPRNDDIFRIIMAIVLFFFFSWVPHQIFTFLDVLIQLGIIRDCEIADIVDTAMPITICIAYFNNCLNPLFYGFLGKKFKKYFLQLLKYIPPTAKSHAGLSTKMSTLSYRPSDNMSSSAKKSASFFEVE
T1 sequence (P25095 whole entry): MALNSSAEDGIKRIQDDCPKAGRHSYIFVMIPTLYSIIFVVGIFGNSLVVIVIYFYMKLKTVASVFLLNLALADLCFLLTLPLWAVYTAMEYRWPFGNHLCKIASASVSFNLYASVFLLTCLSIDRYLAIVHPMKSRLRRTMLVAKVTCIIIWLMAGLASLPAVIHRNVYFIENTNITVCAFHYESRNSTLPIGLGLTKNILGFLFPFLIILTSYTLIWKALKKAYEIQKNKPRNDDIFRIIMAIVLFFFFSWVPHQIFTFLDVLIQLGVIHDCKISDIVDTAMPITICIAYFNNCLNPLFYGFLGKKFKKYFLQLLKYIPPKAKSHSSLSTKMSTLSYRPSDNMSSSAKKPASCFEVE
The assay can be described thus: In vitro binding affinity to angiotensin II receptor, type 1 in rat adrenal cortex preparation. In kind it is tissue-based.

For a further assay, the species on record is Oryctolagus cuniculus. Nature of the assay: In vitro functional antagonism in isolated rabbit aortic rings precontracted by AII. As to conditions: Aorta.
The next assay relates to Rattus norvegicus. The assay can be described thus: In vivo percent inhibition of AII induced increase in diastolic blood pressure in pithed rats at a dose of 3 mg/kg, i.d. In kind it is functional. As to conditions: Artery, route intraduodenal.

What is called IC50 is the concentration at which inhibition is half-maximal. Low readings indicate greater potency in that assay, high ones weaker potency in that assay. `CCCCc1ccc(CN(C)S(=O)(=O)c2ccc(C)cc2)c(=O)n1Cc1ccc(-c2ccccc2-c2nn[nH]n2)cc1`: the 50% inhibitory concentration (IC50) is 4.2 nM in assay [1] and 8 nM in the assay filed under Oryctolagus cuniculus.

As to `CCCCc1ccc(C)c(=O)n1Cc1ccc(-c2ccccc2-c2nn[nH]n2)cc1`, the IC50 came out at 6.1 nM in assay [1] and 7 nM in the assay listed under Oryctolagus cuniculus.

As for `CCCCc1ccc(C#N)c(=O)n1Cc1ccc(-c2ccccc2-c2nn[nH]n2)cc1`, the IC50 in assay [1] was 18 nM.

In general, inhibition in vivo refers to the change of the read-out against control, counted positive when it falls. A lower inhibition in vivo goes with a response near the control. Consider `CCCCc1ccc(CNS(=O)(=O)c2ccccc2)c(=O)n1Cc1ccc(-c2ccccc2-c2nn[nH]n2)cc1`, for which the half-maximal inhibitory concentration (IC50) in assay [1] was 4.1 nM; in the assay listed under Oryctolagus cuniculus it was 7 nM. For the same compound, at 3 mg/kg the inhibition in vivo in the assay with Rattus norvegicus was 25.2%.

With `CCCCc1ccc(CN(Cc2ccccc2)C(=O)OC(C)(C)C)c(=O)n1Cc1ccc(-c2ccccc2-c2nn[nH]n2)cc1`, the IC50 in assay [1] is recorded as 20 nM.

As for `CCCCc1ccc(CNC(=O)NC2CCCCC2)c(=O)n1Cc1ccc(-c2ccccc2-c2nn[nH]n2)cc1`, the half-maximal inhibitory concentration (IC50) in assay [1] came to 21 nM; in the assay filed under Oryctolagus cuniculus, 90 nM. This compound gave an inhibition in vivo at 3 mg/kg with Rattus norvegicus of 0%.

Regarding `CCCCc1ccc(CN(Cc2ccccc2)C(C)=O)c(=O)n1Cc1ccc(-c2ccccc2-c2nn[nH]n2)cc1`, the IC50 was determined as 2.8 nM in assay [1] and 1 nM in the assay filed under Oryctolagus cuniculus. The same compound yielded an inhibition in vivo at 3 mg/kg with Rattus norvegicus of 76.3%.

Turning to `CCCCc1ccc(CNS(C)(=O)=O)c(=O)n1Cc1ccc(-c2ccccc2-c2nn[nH]n2)cc1`, the IC50 in assay [1] worked out at 2.2 nM; in the assay filed under Oryctolagus cuniculus, 2 nM. At 3 mg/kg the inhibition in vivo in the assay with Rattus norvegicus was 54.8%.

For the compound `CCCCc1ccc(CNC(=O)OC(C)(C)C)c(=O)n1Cc1ccc(-c2ccccc2-c2nn[nH]n2)cc1`, the IC50 is 6 nM in assay [1] and 10 nM in the assay filed under Oryctolagus cuniculus. Besides, the inhibition in vivo at 3 mg/kg in the assay with Rattus norvegicus turned out to be 68.9%.

Consider `CCCCc1ccc(CN(Cc2ccccc2)S(C)(=O)=O)c(=O)n1Cc1ccc(-c2ccccc2-c2nn[nH]n2)cc1`, for which the 50% inhibitory concentration (IC50) in assay [1] worked out at 3.8 nM; in the assay filed under Oryctolagus cuniculus it was 2 nM. This compound showed an inhibition in vivo at 3 mg/kg with Rattus norvegicus of 41.2%.

With `CCCCc1ccc(CN(C)C(=O)N(C)C)c(=O)n1Cc1ccc(-c2ccccc2-c2nn[nH]n2)cc1`, the IC50 in assay [1] is reported as 13 nM.

Turning to `CCCCc1ccc(CN(C)S(=O)(=O)c2ccccc2)c(=O)n1Cc1ccc(-c2ccccc2-c2nn[nH]n2)cc1`, the 50% inhibitory concentration (IC50) in assay [1] came to 4.2 nM; in the assay filed under Oryctolagus cuniculus it was 2 nM. This compound yielded an inhibition in vivo at 3 mg/kg with Rattus norvegicus of 68.7%.

In the case of `CCCCNC(=O)NCc1ccc(CCCC)n(Cc2ccc(-c3ccccc3-c3nn[nH]n3)cc2)c1=O`, the IC50 worked out at 9 nM in assay [1] and 10 nM in the assay filed under Oryctolagus cuniculus. In addition, in the assay with Rattus norvegicus, the inhibition in vivo at 3 mg/kg is 10.3%.

As for `CCCCc1cccc(=O)n1Cc1ccc(-c2ccccc2-c2nn[nH]n2)cc1`, the values for the half-maximal inhibitory concentration (IC50) (in assay [1]; in the assay filed under Oryctolagus cuniculus) were 18 nM and 4 nM, respectively.

Take `CCCCc1ccc(CN(CC)S(C)(=O)=O)c(=O)n1Cc1ccc(-c2ccccc2-c2nn[nH]n2)cc1`: the IC50 came to 3.5 nM in assay [1] and 2 nM in the assay filed under Oryctolagus cuniculus.

For the compound `CCCCc1ccc(CNC(=O)CCC)c(=O)n1Cc1ccc(-c2ccccc2-c2nn[nH]n2)cc1`, the IC50 in assay [1] was found to be 5.7 nM.

In the assay with Rattus norvegicus, `CCCCc1nc(Cl)c(CO)n1Cc1ccc(-c2ccccc2-c2nn[nH]n2)cc1` registered an inhibition in vivo at 3 mg/kg of 73.6%. The IC50 in the assay filed under Oryctolagus cuniculus came to 3 nM.

On to `CCCCc1ccc(CNC(=O)Cc2ccccc2)c(=O)n1Cc1ccc(-c2ccccc2-c2nn[nH]n2)cc1`, for which the concentration for half-maximal inhibition (IC50) in assay [1] is on record as 4.1 nM.

As for `CCCCc1ccc(CN(Cc2ccccc2)S(=O)(=O)c2ccc(C)cc2)c(=O)n1Cc1ccc(-c2ccccc2-c2nn[nH]n2)cc1`, the IC50 in assay [1] was 16.5 nM; in the assay filed under Oryctolagus cuniculus, 60 nM. The same compound displayed an inhibition in vivo at 3 mg/kg with Rattus norvegicus of 36.6%.

For the compound `CCCCc1ccc(CN(C)S(C)(=O)=O)c(=O)n1Cc1ccc(-c2ccccc2-c2nn[nH]n2)cc1`, the figures for the half-inhibitory concentration (IC50) (in assay [1]; in the assay listed under Oryctolagus cuniculus) were 1.2 nM and 0.2 nM, respectively. In addition, at 3 mg/kg the inhibition in vivo in the assay with Rattus norvegicus was 83.4%.

`CCCCc1ccc(CNC(=O)Nc2ccccc2)c(=O)n1Cc1ccc(-c2ccccc2-c2nn[nH]n2)cc1`: the IC50 in assay [1] was 18 nM; in the assay listed under Oryctolagus cuniculus it was 30 nM. In addition, in the assay on Rattus norvegicus, testing at 3 mg/kg gave an inhibition in vivo of 0%.

With `CCCCc1ccc(CNS(=O)(=O)c2ccc(C)cc2)c(=O)n1Cc1ccc(-c2ccccc2-c2nn[nH]n2)cc1`, the results for the IC50 (in assay [1]; in the assay listed under Oryctolagus cuniculus) were 3.3 nM and 9 nM, respectively.

With `CCCCc1ccc(CNS(=O)(=O)C(F)(F)F)c(=O)n1Cc1ccc(-c2ccccc2-c2nn[nH]n2)cc1`, in assay [1], the 50% inhibitory concentration (IC50) was determined as 22 nM.

With `CCCCc1ccc(CN(Cc2ccccc2)S(=O)(=O)c2ccccc2)c(=O)n1Cc1ccc(-c2ccccc2-c2nn[nH]n2)cc1`, the half-inhibitory concentration (IC50) in assay [1] came out at 12 nM; in the assay filed under Oryctolagus cuniculus, 20 nM. The compound also showed an inhibition in vivo at 3 mg/kg with Rattus norvegicus of 75.7%.

Turning to `CCCCc1ccc(CNC(C)=O)c(=O)n1Cc1ccc(-c2ccccc2-c2nn[nH]n2)cc1`, the IC50 in assay [1] was 3.8 nM; in the assay listed under Oryctolagus cuniculus, 3 nM. Besides, at 3 mg/kg the inhibition in vivo with Rattus norvegicus was 8.6%.

Regarding `CCCCc1ccc(CNC(=O)N(CC)CC)c(=O)n1Cc1ccc(-c2ccccc2-c2nn[nH]n2)cc1`, the IC50 in assay [1] came out at 6.5 nM.

As for `CCCCc1ccc(CNCc2ccccc2)c(=O)n1Cc1ccc(-c2ccccc2-c2nn[nH]n2)cc1`, the figures for the half-maximal inhibitory concentration (IC50) (in assay [1]; in the assay filed under Oryctolagus cuniculus) were 1.5 nM and 1 nM, respectively. Besides, the inhibition in vivo at 3 mg/kg in the assay with Rattus norvegicus turned out to be 12.4%.

With `CCCCc1ccc(CN(C(C)C)S(C)(=O)=O)c(=O)n1Cc1ccc(-c2ccccc2-c2nn[nH]n2)cc1`, the IC50 came to 1.9 nM in assay [1] and 0.9 nM in the assay filed under Oryctolagus cuniculus. The same compound returned an inhibition in vivo at 3 mg/kg in the assay on Rattus norvegicus of 82.7%.

Turning to `CCCCc1ccc(CN)c(=O)n1Cc1ccc(-c2ccccc2-c2nn[nH]n2)cc1`, the figures for the 50% inhibitory concentration (IC50) (in assay [1]; in the assay listed under Oryctolagus cuniculus) were 19 nM and 20 nM, respectively. Further, the inhibition in vivo at 3 mg/kg in the assay on Rattus norvegicus was determined as 2.8%.

`CCCCc1ccc(CNC(=O)N(C)C)c(=O)n1Cc1ccc(-c2ccccc2-c2nn[nH]n2)cc1`: the half-inhibitory concentration (IC50) in assay [1] came to 2.9 nM; in the assay filed under Oryctolagus cuniculus it was 2 nM. The compound further had an inhibition in vivo at 3 mg/kg in the assay on Rattus norvegicus of 28%.
